What was measured:
Histamine H3 receptor = Histamine H3 receptor (Homo sapiens, UniProt Q9Y5N1)
Cannabinoid receptor 1 [1] = biological target: T1, Cannabinoid receptor 1 (Homo sapiens, UniProt P21554)
[2] = biological target: Sodium-dependent noradrenaline transporter (Homo sapiens, UniProt P23975)
[3] = biological target: T2, Alpha-2B adrenergic receptor (Homo sapiens, UniProt P18089)
T2 sequence (P18089 whole entry): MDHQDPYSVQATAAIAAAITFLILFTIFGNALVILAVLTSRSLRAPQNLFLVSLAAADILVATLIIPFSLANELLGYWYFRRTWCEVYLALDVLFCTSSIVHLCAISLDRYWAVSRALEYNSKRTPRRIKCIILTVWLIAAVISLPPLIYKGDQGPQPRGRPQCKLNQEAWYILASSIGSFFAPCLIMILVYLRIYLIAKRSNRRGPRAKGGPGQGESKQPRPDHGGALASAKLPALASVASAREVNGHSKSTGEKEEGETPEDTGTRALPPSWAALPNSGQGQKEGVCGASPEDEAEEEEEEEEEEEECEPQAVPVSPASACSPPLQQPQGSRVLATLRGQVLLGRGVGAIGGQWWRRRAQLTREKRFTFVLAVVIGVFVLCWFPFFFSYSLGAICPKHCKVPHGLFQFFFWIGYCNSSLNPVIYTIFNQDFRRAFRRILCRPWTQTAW

Mu-type opioid receptor [4] = biological target: T3, Mu-type opioid receptor (Homo sapiens, UniProt P35372)
T3 sequence (P35372 whole entry): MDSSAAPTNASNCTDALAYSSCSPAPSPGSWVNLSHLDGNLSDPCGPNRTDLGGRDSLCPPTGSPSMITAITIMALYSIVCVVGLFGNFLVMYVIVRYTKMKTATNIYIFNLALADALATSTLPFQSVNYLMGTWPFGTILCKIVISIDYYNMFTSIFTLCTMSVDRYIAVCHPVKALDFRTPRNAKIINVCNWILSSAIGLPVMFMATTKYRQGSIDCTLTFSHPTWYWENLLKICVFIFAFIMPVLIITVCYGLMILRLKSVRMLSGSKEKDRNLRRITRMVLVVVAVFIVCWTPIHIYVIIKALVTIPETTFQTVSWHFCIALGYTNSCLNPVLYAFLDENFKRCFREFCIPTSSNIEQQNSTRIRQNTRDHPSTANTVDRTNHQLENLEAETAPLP

Melanocortin receptor 4 = Melanocortin receptor 4 (Homo sapiens, UniProt P32245)
Sequence of Melanocortin receptor 4 (P32245 whole entry): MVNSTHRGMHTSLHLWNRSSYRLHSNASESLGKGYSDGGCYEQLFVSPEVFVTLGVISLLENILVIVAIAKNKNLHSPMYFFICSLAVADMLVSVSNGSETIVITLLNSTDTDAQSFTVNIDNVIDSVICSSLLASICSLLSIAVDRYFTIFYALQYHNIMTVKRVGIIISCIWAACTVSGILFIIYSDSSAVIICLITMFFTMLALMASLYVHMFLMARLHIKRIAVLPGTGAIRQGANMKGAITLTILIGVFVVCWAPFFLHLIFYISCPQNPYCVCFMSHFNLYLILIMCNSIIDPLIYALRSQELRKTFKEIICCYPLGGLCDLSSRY

[5] = biological target: Sodium-dependent serotonin transporter (Homo sapiens, UniProt P31645)
Sequence of Sodium-dependent serotonin transporter (P31645 whole entry): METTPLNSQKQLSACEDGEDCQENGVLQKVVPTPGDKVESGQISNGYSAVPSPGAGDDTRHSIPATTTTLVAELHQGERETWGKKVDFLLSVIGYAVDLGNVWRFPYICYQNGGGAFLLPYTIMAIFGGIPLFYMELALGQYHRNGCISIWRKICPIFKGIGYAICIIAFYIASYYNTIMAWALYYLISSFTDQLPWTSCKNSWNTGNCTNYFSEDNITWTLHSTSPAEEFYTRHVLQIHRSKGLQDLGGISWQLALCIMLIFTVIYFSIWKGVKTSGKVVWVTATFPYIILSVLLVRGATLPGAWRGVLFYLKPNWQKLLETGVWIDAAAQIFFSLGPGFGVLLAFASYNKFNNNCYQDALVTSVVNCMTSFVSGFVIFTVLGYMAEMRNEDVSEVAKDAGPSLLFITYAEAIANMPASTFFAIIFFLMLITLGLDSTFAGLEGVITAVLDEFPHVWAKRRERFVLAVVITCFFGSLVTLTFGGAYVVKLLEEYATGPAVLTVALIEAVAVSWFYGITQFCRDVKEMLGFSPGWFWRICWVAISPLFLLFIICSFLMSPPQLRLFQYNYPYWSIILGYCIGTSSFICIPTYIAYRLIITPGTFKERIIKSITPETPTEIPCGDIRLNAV

Adenosine receptor A1 = biological target: T4, Adenosine receptor A1 (Homo sapiens, UniProt P30542)
T4 sequence (P30542 whole entry): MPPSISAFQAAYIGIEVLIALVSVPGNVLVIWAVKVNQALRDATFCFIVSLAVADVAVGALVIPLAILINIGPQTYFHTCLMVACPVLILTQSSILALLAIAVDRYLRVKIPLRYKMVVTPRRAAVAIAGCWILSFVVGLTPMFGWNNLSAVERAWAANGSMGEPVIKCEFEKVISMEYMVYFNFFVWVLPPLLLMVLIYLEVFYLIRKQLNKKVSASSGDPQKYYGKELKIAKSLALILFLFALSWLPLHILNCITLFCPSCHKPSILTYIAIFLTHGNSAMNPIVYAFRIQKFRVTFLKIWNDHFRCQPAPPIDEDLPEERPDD

Glucocorticoid receptor = biological target: T5, Glucocorticoid receptor (Homo sapiens, UniProt P04150)
T5 sequence (P04150 whole entry): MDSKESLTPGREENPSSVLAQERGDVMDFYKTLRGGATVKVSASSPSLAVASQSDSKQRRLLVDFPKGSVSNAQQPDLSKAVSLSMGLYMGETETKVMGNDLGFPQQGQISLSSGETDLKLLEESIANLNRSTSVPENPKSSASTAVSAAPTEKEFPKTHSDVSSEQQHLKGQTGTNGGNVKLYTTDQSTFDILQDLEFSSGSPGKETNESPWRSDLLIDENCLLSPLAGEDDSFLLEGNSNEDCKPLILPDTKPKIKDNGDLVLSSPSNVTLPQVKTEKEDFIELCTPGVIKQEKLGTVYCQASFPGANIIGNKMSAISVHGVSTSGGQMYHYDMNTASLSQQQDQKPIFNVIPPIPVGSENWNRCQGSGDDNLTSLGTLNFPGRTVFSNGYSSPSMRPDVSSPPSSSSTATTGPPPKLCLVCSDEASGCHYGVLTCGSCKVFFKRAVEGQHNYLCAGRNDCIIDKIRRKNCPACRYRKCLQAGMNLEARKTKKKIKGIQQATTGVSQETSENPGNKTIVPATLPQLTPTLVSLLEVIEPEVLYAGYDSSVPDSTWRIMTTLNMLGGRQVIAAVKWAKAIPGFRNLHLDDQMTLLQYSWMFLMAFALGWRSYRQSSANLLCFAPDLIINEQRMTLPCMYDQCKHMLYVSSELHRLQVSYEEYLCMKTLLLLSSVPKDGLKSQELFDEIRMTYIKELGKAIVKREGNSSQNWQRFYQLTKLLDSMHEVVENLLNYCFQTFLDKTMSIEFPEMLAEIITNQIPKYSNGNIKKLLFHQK

[6] = biological target: T6, Alpha-1A adrenergic receptor (Homo sapiens, UniProt P35348); format: functional, cell-based
T6 sequence (P35348 whole entry): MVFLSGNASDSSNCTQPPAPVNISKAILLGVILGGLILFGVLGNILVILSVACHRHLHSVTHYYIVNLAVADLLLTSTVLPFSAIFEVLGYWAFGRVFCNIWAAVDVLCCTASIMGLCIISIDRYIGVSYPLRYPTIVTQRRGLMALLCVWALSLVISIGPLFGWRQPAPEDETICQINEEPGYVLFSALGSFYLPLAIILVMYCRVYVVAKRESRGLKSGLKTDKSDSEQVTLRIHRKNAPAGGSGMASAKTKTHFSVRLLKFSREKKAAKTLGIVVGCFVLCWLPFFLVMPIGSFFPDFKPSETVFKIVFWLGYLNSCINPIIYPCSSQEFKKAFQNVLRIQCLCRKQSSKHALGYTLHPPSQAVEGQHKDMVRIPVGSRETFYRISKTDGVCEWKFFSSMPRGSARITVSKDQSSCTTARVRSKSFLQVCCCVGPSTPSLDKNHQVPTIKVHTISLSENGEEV

Cannabinoid receptor 1 [7] = biological target: T1, Cannabinoid receptor 1; format: functional, cell-based
[8] = biological target: T6, Alpha-1A adrenergic receptor; format: functional, cell-based; remark: listed apart in the source
[9] = biological target: Muscarinic acetylcholine receptor M3 (Homo sapiens, UniProt P20309)
Sequence of Muscarinic acetylcholine receptor M3 (P20309 whole entry): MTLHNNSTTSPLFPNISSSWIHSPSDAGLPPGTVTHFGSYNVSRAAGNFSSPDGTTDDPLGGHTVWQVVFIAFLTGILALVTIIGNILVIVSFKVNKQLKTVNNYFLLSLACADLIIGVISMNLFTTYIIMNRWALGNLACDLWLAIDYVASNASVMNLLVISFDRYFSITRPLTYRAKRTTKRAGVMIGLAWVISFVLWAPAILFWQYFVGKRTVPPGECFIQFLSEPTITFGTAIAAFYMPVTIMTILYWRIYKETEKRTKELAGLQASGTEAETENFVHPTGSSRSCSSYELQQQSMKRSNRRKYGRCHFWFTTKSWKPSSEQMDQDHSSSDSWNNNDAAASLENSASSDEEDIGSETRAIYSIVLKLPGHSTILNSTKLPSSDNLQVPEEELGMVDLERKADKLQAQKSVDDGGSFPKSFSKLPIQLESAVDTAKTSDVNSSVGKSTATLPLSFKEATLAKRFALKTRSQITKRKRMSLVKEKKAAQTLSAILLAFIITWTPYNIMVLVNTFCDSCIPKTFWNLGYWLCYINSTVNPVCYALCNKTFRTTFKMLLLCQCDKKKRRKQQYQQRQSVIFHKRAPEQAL

Mu-type opioid receptor [10] = biological target: T3, Mu-type opioid receptor; experiment: biochemical; format: functional
Also: assay procedure not described here.

T1 sequence (P21554 whole entry): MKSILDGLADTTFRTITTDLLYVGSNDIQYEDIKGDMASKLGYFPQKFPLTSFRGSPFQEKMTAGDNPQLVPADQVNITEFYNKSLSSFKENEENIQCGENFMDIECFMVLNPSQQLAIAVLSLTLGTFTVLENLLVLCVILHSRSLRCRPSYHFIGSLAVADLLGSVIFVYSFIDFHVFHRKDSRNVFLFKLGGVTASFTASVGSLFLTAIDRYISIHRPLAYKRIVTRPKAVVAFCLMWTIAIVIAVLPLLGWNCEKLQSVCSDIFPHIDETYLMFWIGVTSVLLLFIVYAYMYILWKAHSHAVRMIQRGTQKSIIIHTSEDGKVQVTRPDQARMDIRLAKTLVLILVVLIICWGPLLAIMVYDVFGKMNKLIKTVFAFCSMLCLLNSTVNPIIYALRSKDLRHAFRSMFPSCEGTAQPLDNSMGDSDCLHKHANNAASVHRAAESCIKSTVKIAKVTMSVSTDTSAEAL
Sequence of Sodium-dependent noradrenaline transporter (P23975 whole entry): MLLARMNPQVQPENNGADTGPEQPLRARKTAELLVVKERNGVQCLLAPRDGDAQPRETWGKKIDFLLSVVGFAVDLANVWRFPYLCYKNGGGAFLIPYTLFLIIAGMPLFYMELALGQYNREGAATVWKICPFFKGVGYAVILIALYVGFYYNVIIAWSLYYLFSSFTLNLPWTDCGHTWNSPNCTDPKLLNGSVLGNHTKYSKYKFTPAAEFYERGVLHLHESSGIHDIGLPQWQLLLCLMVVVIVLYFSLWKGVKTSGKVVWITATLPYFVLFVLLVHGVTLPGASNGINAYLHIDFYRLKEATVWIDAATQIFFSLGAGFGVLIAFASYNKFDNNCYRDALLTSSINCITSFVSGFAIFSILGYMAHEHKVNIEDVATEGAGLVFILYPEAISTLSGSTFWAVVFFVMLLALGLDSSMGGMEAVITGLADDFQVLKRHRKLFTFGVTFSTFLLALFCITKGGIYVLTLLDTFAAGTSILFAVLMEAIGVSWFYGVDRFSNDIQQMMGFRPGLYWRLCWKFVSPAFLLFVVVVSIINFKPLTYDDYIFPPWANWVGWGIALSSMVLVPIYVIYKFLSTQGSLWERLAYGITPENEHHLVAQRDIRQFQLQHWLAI
Sequence of Histamine H3 receptor (Q9Y5N1 whole entry): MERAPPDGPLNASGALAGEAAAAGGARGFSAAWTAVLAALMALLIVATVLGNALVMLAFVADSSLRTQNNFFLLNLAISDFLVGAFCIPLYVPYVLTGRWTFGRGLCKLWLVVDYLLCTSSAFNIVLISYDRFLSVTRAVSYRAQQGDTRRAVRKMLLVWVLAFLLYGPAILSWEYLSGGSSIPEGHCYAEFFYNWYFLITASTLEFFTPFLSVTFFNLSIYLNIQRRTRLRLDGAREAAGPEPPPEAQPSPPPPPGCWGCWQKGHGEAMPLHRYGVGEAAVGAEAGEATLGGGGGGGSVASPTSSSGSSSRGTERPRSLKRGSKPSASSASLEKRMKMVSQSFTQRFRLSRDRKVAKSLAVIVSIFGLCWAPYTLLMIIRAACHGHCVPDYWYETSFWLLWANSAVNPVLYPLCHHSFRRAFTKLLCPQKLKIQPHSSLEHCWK

| SMILES | AC50 (Histamine H3 receptor) | AC50 (Cannabinoid receptor 1 [1]) | AC50 [2] | AC50 [3] | AC50 (Mu-type opioid receptor [4]) | AC50 (Melanocortin receptor 4) | AC50 [5] | AC50 (Adenosine receptor A1) | AC50 (Glucocorticoid receptor) | AC50 [6] | AC50 (Cannabinoid receptor 1 [7]) | AC50 [8] | AC50 [9] | AC50 (Mu-type opioid receptor [10]) |
| --- | --- | --- | --- | --- | --- | --- | --- | --- | --- | --- | --- | --- | --- | --- |
| C[C@]1(COc2ccc(N3CCC(Oc4ccc(OC(F)(F)F)cc4)CC3)cc2)Cn2cc([N+](=O)[O-])nc2O1 | > 10 µM | > 10 µM | > 10 µM | > 10 µM | > 10 µM | > 30 µM | > 10 µM | > 30 µM | > 30 µM |  |  |  |  |  |
| CC(=O)OCC[N+](C)(C)C [ACETYLCHOLINE] | > 10 µM | > 10 µM | > 30 µM | > 10 µM | > 10 µM | > 30 µM | > 30 µM | > 30 µM | > 30 µM | > 30 µM | > 30 µM | > 30 µM |  |  |
| O=C(Nc1nc(-c2cc(Cl)cs2)c(N2CCN(C3CCCCC3)CC2)s1)c1cnc(N2CCC(C(=O)O)CC2)c(Cl)c1 [AVATROMBOPAG] | > 10 µM | > 10 µM | > 10 µM | > 10 µM | > 10 µM | > 10 µM | > 10 µM | > 30 µM |  |  |  |  | > 10 µM |  |
| CO[C@@]1(NC(=O)CSCC#N)C(=O)N2C(C(=O)O)=C(CSc3nnnn3C)CS[C@@H]21 [CEFMETAZOLE] |  |  |  |  |  |  |  | > 30 µM |  | > 30 µM | > 30 µM | > 30 µM |  | > 30 µM |
| CO/N=C(\C(=O)N[C@@H]1C(=O)N2C(C(=O)[O-])=C(C[n+]3cccc4c3CCC4)CS[C@H]12)c1csc(N)n1 [CEFPIROME] |  |  |  | > 30 µM |  |  |  | > 30 µM |  | > 30 µM | > 30 µM | > 30 µM | > 30 µM | > 30 µM |
| CC[C@H]1OC(=O)[C@H](C)[C@@H](O[C@H]2C[C@@](C)(OC)[C@@H](O)[C@H](C)O2)[C@H](C)[C@@H](O[C@@H]2O[C@H](C)C[C@H](N(C)C)[C@H]2O)[C@](C)(OC)C[C@@H](C)C(=O)[C@H](C)[C@@H](O)[C@]1(C)O [CLARITHROMYCIN] | > 30 µM |  | > 30 µM |  |  |  |  | > 30 µM | > 30 µM | > 30 µM | > 30 µM | > 30 µM |  | > 30 µM |
| Oc1c(I)cc(Cl)c2cccnc12 [CLIOQUINOL] |  |  |  | > 30 µM |  |  |  | > 30 µM |  | > 30 µM | > 30 µM | > 30 µM | > 30 µM | > 30 µM |
| O=C(CCCN1CC=C(n2c(=O)[nH]c3ccccc32)CC1)c1ccc(F)cc1 [DROPERIDOL] |  |  |  |  |  |  |  | > 30 µM |  |  |  |  |  |  |
| Nc1nc(N)nc(Nc2ccc([As]3SCC(CO)S3)cc2)n1 (stereo not drawn) [MELARSOPROL] |  |  |  |  |  |  |  | > 30 µM |  |  |  |  |  |  |
| CCC(=O)O[C@@H]1CC(=O)O[C@H](C)C/C=C/C=C/[C@H](OC(C)=O)[C@H](C)C[C@H](CC=O)[C@H](O[C@@H]2O[C@H](C)[C@@H](O[C@H]3C[C@@](C)(OC(C)=O)[C@@H](OC(=O)CC)[C@H](C)O3)[C@H](N(C)C)[C@H]2O)[C@H]1OC [MIOCAMYCIN] |  |  |  |  |  |  |  | > 30 µM |  |  |  |  |  |  |
| C1CNCCN1 [PIPERAZINE] |  |  |  |  |  |  |  | > 30 µM |  |  |  |  |  |  |
| COCCCOc1ccnc(C[S+]([O-])c2nc3ccccc3[nH]2)c1C (stereo not drawn) [RABEPRAZOLE] | > 10 µM | > 10 µM | > 10 µM |  | > 30 µM | > 30 µM |  | > 30 µM | > 30 µM |  |  |  |  |  |

From ChEMBL document CHEMBL5291721, “A preclinical secondary pharmacology resource illuminates target-adverse drug reaction associations of marketed drugs” (Nat Commun, 2023)
